# Test results as given in US20240404621A1, “THERAPEUTIC DEVELOPMENT PLATFORM COMPRISING VARIANT CAPTURE MAPS AND OTHER VISUALIZATIONS” (The Scripps Research Institute, priority 2021, published 2024).
# Tests used:
# [1] = biological target: T1, F508del CFTR (Homo sapiens, UniProt P13569, DEL508-508); assay: total level and trafficking (TrIdx) of F508del in F508del-CFBE41o− cells; type: cell-based
# T1 construct: expressed in transfected cells
# From the text: (§1) FIG. 2 illustrates an example process of variant spatial profiling (VSP) to generate a phenotype landscape 300 of FIG. 1. VSP uses a sparse collection of variants with known position and phenotypical traits. Each of the variants is positioned on the x-axis by their normalized position in the linear polypeptide sequence, where the full-length chain is assigned a value of 1.0, referred to as the variant sequence position (VarSeqP). The value of a phenotypic feature of each variant's (in this example the trafficking index, TrIdx) to the y-axis. The trafficking index (TrIdx) is the normalized ratio of the fraction of variants exported from the ER relative to the total variant level in the cell, where the value of the WT CFTR TrIdx is assigned a value of 1.0. In this example, the sequence position and TrIdx values are correlated to CFTR chloride conductance (CICon). The normalized CICon is assigned to the z-coordinate, where the value of the WT CFTR CICon is assigned a value of 1.0.
# Referring now to FIG. 13, to address whether the correction of CICon in response to temperature is due to energetic features associated with global SCV relationships responsible for membrane trafficking of CFTR from the ER, we built the VarC map for the CFTR trafficking index (TrIdx) of variants following shift from 37° C. to 27° C. TrIdx quantifies the amount of CFTR in post-ER compartments relative to total CFTR in the cell as a measure of efficiency of ER export. The pairwise-residue based TS/TrIdx-VarC map (FIG. 13, upper left panel) and its corresponding TS/TrIdx-functional-response-structure (FIG. 13, upper second from left panel) reveal that only a limited subset of sequence residues contributes to TrIdx correction upon temperature shift. These include: 1) a sequence region containing F508 (FIG. 13, upper left panel, inset zoom); 2) a region in NBD1 domain including variants L558S, A559T, R560K/T and Y569D that are surrounding the CFTR di-acidic code (YKDAD (residues 563-567)) required for COPII dependent ER export (FIG. 13 upper left panel, inset zoom); 3) a sequence region in ICL4 that is reported by CF variants L1065P and L1077P (13) (FIG. 13, upper left panel, inset zoom). Even though separated in primary sequence, these responding regions cluster together in structure (FIG. 13, upper second from left panel). Overlap of MDC maps and corresponding MDC structures between TS/CICon and TS/TrIdx identifies a common energetic sensitive core (FIG. 13, right side, red) responding to temperature shift for both TrIdx and CICon function. This SCV based energetic sensitive core contains the F508-L1065 covariant link that bridges NBD1 (F508) and ICL4 (L1065) (FIG. 13, right panel, inset zoom, red), mechanistically explaining the previous observation that the NBD1-ICL4 interaction is crippled by F508del.
# Consistent with previous results, using F508del-CFBE41o− cells, a bronchial epithelial cell line stably expressing the F508Del CFTR transgene, we found ELEXA alone can increase both the total level and the trafficking efficacy of F508del.
# To test whether we can add value to the pairwise-residue networks targeted by TRIKA to improve TRIKA benefit for CF by restoring the lost energetics of the fold in response to F508del affecting the function of di-acidic exit code, we measured the impact of ELEXA and TRIKA impact on F508del at 27° C.
# [2] = biological target: T1, F508del CFTR; assay: steady-state CICon at the cell surface of WT and F508del; type: cell-based; conditions: F508del relative to WT
# From the text: as §1
# To assess how TrIdx is coupled to CICon at the cell surface in response to ELEXA or TRIKA, we assessed the steady-state CICon at the cell surface of WT and F508del. […] To understand the impact of ELEXA and TRIKA on the SCV relationships spanning the entire CFTR polypeptide, we measured the CICon responses for 64 CF variants. […]
# [3] = F508del at 27° C. compared to 37° C.
# [4] = F508del-CFBE41o− cells, compound alone
# T1 sequence (P13569 with tags, fused parts or gaps DEL508-508): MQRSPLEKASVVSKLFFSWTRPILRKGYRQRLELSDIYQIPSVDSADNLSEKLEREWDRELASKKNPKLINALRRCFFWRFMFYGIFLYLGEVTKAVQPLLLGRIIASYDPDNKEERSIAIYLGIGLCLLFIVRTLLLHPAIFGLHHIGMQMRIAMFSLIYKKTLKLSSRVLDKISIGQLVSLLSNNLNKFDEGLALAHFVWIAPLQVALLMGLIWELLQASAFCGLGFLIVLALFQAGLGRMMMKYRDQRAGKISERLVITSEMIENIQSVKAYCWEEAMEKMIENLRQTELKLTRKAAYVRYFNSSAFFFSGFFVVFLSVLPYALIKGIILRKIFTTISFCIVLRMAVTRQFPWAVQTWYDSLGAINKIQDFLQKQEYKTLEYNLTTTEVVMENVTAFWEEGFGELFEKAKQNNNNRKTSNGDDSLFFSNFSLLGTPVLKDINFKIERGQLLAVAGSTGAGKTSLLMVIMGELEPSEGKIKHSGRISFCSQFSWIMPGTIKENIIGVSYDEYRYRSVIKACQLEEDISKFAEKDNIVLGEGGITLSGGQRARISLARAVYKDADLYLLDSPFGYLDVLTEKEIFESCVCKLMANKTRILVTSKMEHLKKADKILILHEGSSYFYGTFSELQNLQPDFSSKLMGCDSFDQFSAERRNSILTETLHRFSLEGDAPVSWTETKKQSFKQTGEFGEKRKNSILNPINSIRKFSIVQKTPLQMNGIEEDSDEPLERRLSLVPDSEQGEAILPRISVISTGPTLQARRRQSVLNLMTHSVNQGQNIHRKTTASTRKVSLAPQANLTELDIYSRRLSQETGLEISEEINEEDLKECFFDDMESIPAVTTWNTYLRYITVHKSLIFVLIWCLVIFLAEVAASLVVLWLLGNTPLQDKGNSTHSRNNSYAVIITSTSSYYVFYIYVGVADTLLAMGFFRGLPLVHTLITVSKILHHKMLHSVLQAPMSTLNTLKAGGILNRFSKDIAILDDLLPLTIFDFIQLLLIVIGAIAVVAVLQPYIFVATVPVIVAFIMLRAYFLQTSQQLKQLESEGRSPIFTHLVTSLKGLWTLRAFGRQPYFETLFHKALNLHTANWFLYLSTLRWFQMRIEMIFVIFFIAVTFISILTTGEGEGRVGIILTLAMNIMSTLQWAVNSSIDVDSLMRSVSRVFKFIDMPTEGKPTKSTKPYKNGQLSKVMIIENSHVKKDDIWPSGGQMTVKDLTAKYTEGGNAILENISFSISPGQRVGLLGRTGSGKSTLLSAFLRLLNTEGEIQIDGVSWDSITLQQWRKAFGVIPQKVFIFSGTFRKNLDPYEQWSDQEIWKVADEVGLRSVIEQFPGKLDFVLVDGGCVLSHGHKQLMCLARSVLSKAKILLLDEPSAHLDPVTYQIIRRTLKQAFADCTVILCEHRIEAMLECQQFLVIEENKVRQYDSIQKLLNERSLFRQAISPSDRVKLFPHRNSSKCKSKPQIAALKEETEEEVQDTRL
"impact on TrIdx ([1]; F508del-CFBE41o− cells, IVA added to ELEXA)",CICon function for F508del [2],"level of post-ER band C [1, 3]","total CFTR [1, 3]","trafficking efficiency (band C relative to total) [1, 3]","total level of F508del [1, 4]","trafficking efficacy of F508del [1, 4]",SMILES
no additional impact,–,–,–,–,–,–,"CC(C)(C)c1cc(C(C)(C)C)c(NC(=O)c2c[nH]c3ccccc3c2=O)cc1O [IVA, Ivacaftor]"
–,~20 % of WT,dramatic improvement,dramatic improvement,dramatic improvement,can increase,can increase,"Cc1nn(C)cc1S(=O)(=O)NC(=O)c1ccc(-n2ccc(OCC(C)(C)C(F)(F)F)n2)nc1N1C[C@@H](C)CC1(C)C [ELEXA, Elexacaftor]"
